System: Escherichia coli ATCC25922 standard strain
Assay: urinary and renal bacterial culture of acute pyelonephritis rats
Assay type: in vivo, SD rats
Settings: gavage, 10 days; for Renal bacterial culture score: mean score, scale 1-4 of Table 10 (colony number <10, >10, >100, >1000); for Urinary bacterial A value (OD600 nm): urine culture
Experimental: Ninety male SD rats having a weight of 180-220 g are selected, wherein: ten rats are selected as a sham-operated group (only being processed with ligation, without injecting with Escherichia coli), and the remaining rats are injected with Escherichia coli ATCC25922 standard strain having a concentration of 10^8/ml according to the method (disclosed in the Chinese Journal of Laboratory Animal Science, 1998, 8(1): pages 31-34) for preparing the acute pyelonephritis model rats.
After three days, urine of the rats is collected for bacterial culture, and the growth situation of the bacteria is observed. If the result is positive, the model rats are successively established; the unqualified rats are excluded, and the operation is made again for complementing the rats. The successively established model rats are randomly divided into the model group, the norfloxacin group (66.7 mg/kg), the LM49 solid dispersion low-dose group (with the drug concentration of 3 mg/kg), the LM49 solid dispersion medium-dose group (with the drug concentration of 9 mg/kg), the LM49 solid dispersion high-dose group (with the drug concentration of 27 mg/kg), the A8 solid dispersion low-dose group (with the drug concentration of 3 mg/kg), the A8 solid dispersion medium-dose group (with the drug concentration of 9 mg/kg), and the A8 solid dispersion high-dose group (with the drug concentration of 27 mg/kg).
The rats of the sham-operated group and the model group are administrated with the normal saline of same volume by gavage, and the rats of the other groups are respectively administrated with the drugs of the corresponding dose, once a day for consecutive ten days.
After finishing administration, urine of the rats of all groups is collected (for observing the bacterial growth situation). The abdominal aorta blood of the rats is drawn (for measuring the blood routine, CD4/CD8, urine creatinine and serum creatinine in the serum; and for measuring contents of IL-1α, IL-1β, IL-6, IL-10 and MCP-1 in the serum with the ELISA method). Two kidneys of each rat are cut (wherein a part is homogenated for bacterial culture, and the other part is used for observing the pathomorphology change).

SMILES	Renal bacterial culture score (high-dose 27 mg/kg)	Urinary bacterial A value (OD600 nm) (high-dose 27 mg/kg)	Renal bacterial culture score (low-dose 3 mg/kg)	Urinary bacterial A value (OD600 nm) (low-dose 3 mg/kg)	Renal bacterial culture score (medium-dose 9 mg/kg)	Urinary bacterial A value (OD600 nm) (medium-dose 9 mg/kg)
O=C(c1cc(OC(=O)N2CCOCC2)c(OC(=O)N2CCOCC2)cc1Cl)c1cc(Cl)ccc1OC(=O)N1CCOCC1 [A8, 4,5,2′-tris(4-morpholinemethanoyl)-2,5′-dichlorobenzophenone]	1.5 ± 0.33^ΔΔ	0.274 ± 0.113^ΔΔ	3.6 ± 0.57^	0.332 ± 0.131^	2.6 ± 0.23^Δ	0.304 ± 0.125^Δ
O=C(c1cc(Br)ccc1O)c1cc(O)c(O)cc1Br [LM49, 2,5′-dibromo-4,5,2′-trihydroxyldiphenylmethanone]	1.9 ± 0.57^ΔΔ	0.304 ± 0.109^Δ	3.9 ± 0.32^	0.353 ± 0.128^	3.4 ± 0.52^Δ	0.331 ± 0.100^Δ

Source: US20190133968A1, “Applications of benzophenones in preparation of drug” (SHANXI MEDICAL UNIVERSITY, priority 2016, published 2019)
